Measured values from patent US20120028880A1, “VEGFR-1/NRP-1 TARGETING PEPTIDES” (priority 2007, published 2012).
Like-named read-outs stand apart in the source and are kept apart here. Square brackets hold non-standard residues; d marks the D form. Ends that are not written are not given here. Peptide text beside a SMILES is read from it.

Legend:
[1] = Weight loss in diet-induced obese mice; format: in vivo, mouse
Excerpt: The present inventors thus carried out studies to assess the ability of the LPR VEGFR-1 targeting peptides of the present invention to target fat tissue and thereby reduce weight in diet-induced obese mice. To this end, diet-induced obese mice were divided in groups and treated with the VEGFR-1/NRP-1 targeting peptide. C57BL/6 ]-60% DIO mice (36-weeks old) were purchased from The Jackson Laboratory. These animals were fed on a high calorie diet (J-60%) to produce a diet-induced obesity (DIO) phenotype. Animals were divided in groups and treated daily with: [Group 1]D(CLPRC) (SEQ ID NO:7) (N=5); [Group 2] CKGGRAKDC-GG-D(KLAKLAK)2 (SEQ ID NO:9) (N=3); [Group 3]D(CLPRC) combined with CKGGRAKDC-GG-D(KLAKLAK)2 (SEQ ID NO:10) (N=4); [Group 4] vehicle only (N=4). All animals were hydrated by intraperitoneally administration of 1 ml of saline solution (0.9% sodium chloride solution, USP quality) 30 minutes prior to treatment. Mice were treated daily with D(CLPRC) dissolved in phosphate buffered saline vehicle (PBS) (100 μl total injection) at a 50 mg/Kg/body weight dose (Groups 1 and 3); CKGGRAKDC-GG-D(KLAKLAK)2 (SEQ ID NO:9) in PBS was administered by subcutaneously (100 total volume) at 3 mg/Kg (Group 2) or at 1 mg/Kg when in combination with D(CLPRC) (Group 3) 5 days a week (Monday thru Friday). Mice were weighted once a week.

white fat = details: previous studies of the inventors; cited from earlier work
pancreatin = experiment: Protease resistance assay; format: in vitro ADME; details: increasing concentrations of pancreatin, highest ratio 400 pg/nmol; 2 h at 37° C.; MALDI-TOF
Protocol: Protease resistance assay. The D(LPR) and RPL peptides were diluted to 500 μg/ml in PBS and incubated with increasing concentrations of pancreatin (Sigma-Aldrich, St. Louis, Mo.) for 2 h at 37° C. Samples were then analyzed by mass spectroscopy (MALDI-TOF).

VEGFR-1 [2] = target: T1, VEGFR-1 (Homo sapiens, UniProt P17948); details: Giordano et al., 2001; read-out: IC50 previously described for VEGFR-1; cited from earlier work
T1 construct: purchased R&D Systems (Minneapolis, Minn.)
T1 sequence (P17948 27-1338, species assumed): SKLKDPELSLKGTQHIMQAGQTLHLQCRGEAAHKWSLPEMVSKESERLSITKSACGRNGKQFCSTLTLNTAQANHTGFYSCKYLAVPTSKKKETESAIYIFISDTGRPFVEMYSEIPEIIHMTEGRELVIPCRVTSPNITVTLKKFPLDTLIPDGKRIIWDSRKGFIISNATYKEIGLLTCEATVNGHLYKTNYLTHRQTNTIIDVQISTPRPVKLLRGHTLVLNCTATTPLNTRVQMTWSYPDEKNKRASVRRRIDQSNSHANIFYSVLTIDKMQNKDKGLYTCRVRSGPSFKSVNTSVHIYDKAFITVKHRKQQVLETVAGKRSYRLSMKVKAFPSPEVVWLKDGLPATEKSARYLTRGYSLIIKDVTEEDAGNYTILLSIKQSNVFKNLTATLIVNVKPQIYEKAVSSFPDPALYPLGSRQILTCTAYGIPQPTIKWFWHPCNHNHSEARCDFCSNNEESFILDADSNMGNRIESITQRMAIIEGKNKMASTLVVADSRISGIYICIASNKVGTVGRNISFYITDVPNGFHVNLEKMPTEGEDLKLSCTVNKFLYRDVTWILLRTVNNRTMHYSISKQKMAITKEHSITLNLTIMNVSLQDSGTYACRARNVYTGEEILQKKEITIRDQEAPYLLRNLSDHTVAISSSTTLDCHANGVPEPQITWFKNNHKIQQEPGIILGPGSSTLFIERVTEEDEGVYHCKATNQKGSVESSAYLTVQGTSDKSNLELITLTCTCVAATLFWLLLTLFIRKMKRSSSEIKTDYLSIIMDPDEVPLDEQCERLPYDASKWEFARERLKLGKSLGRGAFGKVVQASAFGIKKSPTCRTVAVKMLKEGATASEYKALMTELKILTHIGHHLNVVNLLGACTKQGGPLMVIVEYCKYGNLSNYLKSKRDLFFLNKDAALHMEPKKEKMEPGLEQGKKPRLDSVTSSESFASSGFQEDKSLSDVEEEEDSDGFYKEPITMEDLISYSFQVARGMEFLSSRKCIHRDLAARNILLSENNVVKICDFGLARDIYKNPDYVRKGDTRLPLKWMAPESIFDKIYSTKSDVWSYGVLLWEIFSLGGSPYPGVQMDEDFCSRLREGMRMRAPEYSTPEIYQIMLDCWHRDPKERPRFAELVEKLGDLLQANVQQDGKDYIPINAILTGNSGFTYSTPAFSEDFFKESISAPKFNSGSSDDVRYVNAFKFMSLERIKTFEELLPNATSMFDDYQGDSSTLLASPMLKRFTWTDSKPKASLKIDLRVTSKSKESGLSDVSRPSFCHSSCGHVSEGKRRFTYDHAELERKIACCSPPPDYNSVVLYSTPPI

NRP-1 [3] = target: T2, NRP-1 (Homo sapiens, UniProt O14786); details: Giordano et al., 2001; read-out: IC50 previously described for NRP-1; cited from earlier work
T2 construct: purchased R&D Systems (Minneapolis, Minn.)
T2 sequence (O14786 22-923): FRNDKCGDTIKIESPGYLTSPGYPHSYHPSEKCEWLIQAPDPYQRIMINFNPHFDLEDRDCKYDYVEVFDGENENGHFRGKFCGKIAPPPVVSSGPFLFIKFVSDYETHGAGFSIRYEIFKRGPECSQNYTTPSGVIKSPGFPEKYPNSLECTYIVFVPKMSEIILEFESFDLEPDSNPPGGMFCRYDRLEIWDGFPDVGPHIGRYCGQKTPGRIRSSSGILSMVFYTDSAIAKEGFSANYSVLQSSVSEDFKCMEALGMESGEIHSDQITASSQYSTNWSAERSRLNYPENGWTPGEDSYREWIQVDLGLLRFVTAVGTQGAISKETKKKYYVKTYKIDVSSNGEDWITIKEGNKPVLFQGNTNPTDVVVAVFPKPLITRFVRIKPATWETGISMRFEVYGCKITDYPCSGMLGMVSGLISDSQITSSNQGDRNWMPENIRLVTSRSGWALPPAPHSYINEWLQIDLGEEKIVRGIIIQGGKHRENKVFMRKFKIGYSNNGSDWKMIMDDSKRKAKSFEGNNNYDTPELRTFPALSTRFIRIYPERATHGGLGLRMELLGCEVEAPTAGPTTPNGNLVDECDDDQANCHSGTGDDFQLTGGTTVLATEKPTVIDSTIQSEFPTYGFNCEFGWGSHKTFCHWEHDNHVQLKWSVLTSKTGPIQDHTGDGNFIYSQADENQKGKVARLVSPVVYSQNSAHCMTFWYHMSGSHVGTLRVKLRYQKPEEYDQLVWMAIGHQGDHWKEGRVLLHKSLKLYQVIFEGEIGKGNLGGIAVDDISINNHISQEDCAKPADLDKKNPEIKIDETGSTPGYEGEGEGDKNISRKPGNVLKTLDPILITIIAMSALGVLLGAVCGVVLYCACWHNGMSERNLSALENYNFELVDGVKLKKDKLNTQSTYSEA

VEGFR-1 [4] = target: T1, VEGFR-1; experiment: Phage binding competition assay, immobilized VEGFR-1
Protocol: (§1) Phage assay. Phage was prepared by infection of log-phase culture of E. coli K91kan, and overnight growth in Luria-Bertani (LB) media supplemented with kanamycin (100 μg/ml) and tetracyclin (20 μg/ml) at 37° C. and 250 rpm. Phage was precipiated from the media supernatant by the PEG/NaCl method, and phage titer determined by serial dilution and colony counting (Giordano, 2001). For the phage binding and competition assays, VEGFR-1, NRP-1 or BSA (10 μg/ml in PBS) was immobilized on microtiter wells overnight at 4° C. Wells were washed twice, blocked with PBS 3% BSA for 2 h at room temperature and incubated with 10^9 TU of CPQPRPLC or negative control insertless (Fd-tet) phage in PBS 3% BSA. After 1 h at room temperature, wells were washed 10 times with PBS and phage bound to the immobilized receptors recovered by bacterial infection (Giordano, 2001).

NRP-1 [5] = target: T2, NRP-1; experiment: Phage binding competition assay, immobilized NRP-1
Protocol: as §1

EF43.fgf4 derived tumors = experiment: Tumor growth, EF43.fgf4 breast cancer model; format: in vivo, mouse
Protocol: Tumor growth. The EF43.fgf4 cells were cultured in Dulbelco's modified Eegles medium supplemented with fetal bovine serum, glutamine and antibiotics. Cells were harvested before reaching confluence and injected subcutaneously in the mammary fatpad of Balb/c mice. Mier 10 days, tumor reached ˜50-80 mm^3 and were then separated into four groups with seven animals (N=7). Animals in each group were treated with either vehicle only (phosphate saline buffered solution) or with control peptide D(CAPAC) (SEQ ID NO:6) or D(LPR) (at 50 mg/Kg) or with the cyclic version D(CLPRC) (SEQ ID NO:7) (at 25 mg/Kg). Tumor volume was calculated by measuring the length of the long (L) and the short (S) sides of each tumor (V=S^2×L×[…]).
Statistical analysis. For the in vivo experiments, statistical significance of the difference was computed by Kruskal-Wallis test (non parametric one factor ANOVA method) with p<0.05 for each treatment day. […] Multiple comparisons were adjusted by Bejamini & Hochberg method. All the statistical analysis was computed using The R (Version 2.4.1) Project for Statistical Computing.

[6] = fat-zapper alone, 3 mg/Kg subcutaneously, obese mice
[7] = obese C57BL/6 mice, 50 mg/Kg daily intraperitoneally, over the treatment period

Compound: CKGGRAKDC-GG-D(KLAKLAK)2 (CKGGRAKDCGG[dK][dL][dA][dK][dL][dA][dK][dK][dL][dA][dK][dL][dA][dK]; cysteine pairing not given here) [fat-zapper, homing peptide … conjugated to the proapoptotic peptide D(KLAKLAK)2, reference compound]
- weight loss [1, 6]: about 10 grams
- weight loss, % body weight [1, 6]: 20 % body weight
- therapeutic dose that induces fat ablation (white fat): ≥ 3 mg/Kg/body weight

Compound: CC(C)C[C@H](NC(=O)[C@@H]1CCCN1C(=O)[C@@H](N)CCCNC(=N)N)C(=O)O [RPL, L-Arg-L-Pro-L-Leu, reference compound] (H-Arg-Pro-Leu-OH)
- proteolytic degradation by pancreatin (breakdown products by mass spectroscopy) (pancreatin): marked degradation

Compound: CPQPRPLC
- IC50 (VEGFR-1 [2]): ~1 nM
- IC50 (NRP-1 [3]): 50 to 100 nM

Compound: CC(C)C[C@@H](N)C(=O)N1CCC[C@@H]1C(=O)N[C@H](CCCNC(=N)N)C(=O)O [D(LPR), D-Leu-D-Pro-D-Arg] (H-[dL]-[dP]-[dR]-OH)
- IC50 (VEGFR-1 [4]): 0.001 to 0.01 nM
- IC50 (NRP-1 [5]): 0.001 to 0.01 nM
- proteolytic degradation by pancreatin (breakdown products by mass spectroscopy) (pancreatin): No breakdown products were observed

Compound: D(Cys Leu Pro Arg Cys) ([dC][dL][dP][dR][dC]; also: cyclic, ring type not given here) [D(CLPRC)]
- effect on tumor volume (EF43.fgf4 derived tumors; 25 mg/Kg daily, Balb/c mice): significant reduction in tumor volume
- effect on tumor volume (FIG. 3 legend) (EF43.fgf4 derived tumors; legend: 50 mg/Kg daily, after five days of treatment, compared to control animals): reduced tumor volume
- weight loss [1, 7]: about 3 grams
- weight loss, % of body weight [1, 7]: approx. 6 % of body weight
